Source: patent US12612410B2 (CHILDREN'S HOSPITAL MEDICAL CENTER, priority 2020, dated 2026)

Key:
Format in all cases: cell-based
MOLM14 D835Y cells = experiment: MOLM14 D835Y cell viability assay (Cell Titer Glo)
Outline: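 MOLM14 cells carrying FLT3 D835Y or F691L were seeded at 1000 cells/well in RPMI-1640 with 20% FBS and dosed at 22 concentrations, 1:2 dilutions from 10 μM. Viability after 48 h by Cell Titer Glo luminescence; 2.3 μM bortezomib as cytotoxic control.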

NF-κB [1] = experiment: NF-kB SEAP reporter assay in THP-1-Blue NF-κB cells, Pam3CSK4 stimulation; settings: Pam3CSK4 1 ng/mL, read-out: NF-κB Pam3SCK4 IC50
Method: (§1) THP-1-Blue NF-xB cells (InvivoGen) carrying a stable integrated NF-κB-inducible secreted embryonic alkaline phosphatase (SEAP) reporter construct were plated at a concentration of 1×10^5 cells per well. The cells were stimulated with Pam3CSK4 (1 ng/mL) or hIL1B (1 ng/mL). After 10-20 minutes, the cells were then treated with vehicle (DMSO) or serial dilutions of the test compounds (10 doses tested for each test compound, with a 1:10 dilution series starting at 1 μM or 3 μM) with a final volume of 200 μL for 24 hours at 37° C. After 24 hours, the cells were centrifuged and 20 μL supernatant was incubated with 180 μL QUANTI-Blue reagent at 37° C. for 30-60 minutes. The levels of NF-κB-induced was measured in a microplate reader at 620 nm.

NF-κB [2] = experiment: NF-kB SEAP reporter assay in THP-1-Blue NF-κB cells, hIL1B stimulation; settings: hIL1B 1 ng/mL, read-out: NF-κB IL1B IC50
Method: as §1

SMILES | IC50 (MOLM14 D835Y cells; Homo sapiens, MOLM-14, 48 h) [nM] | IC50 (NF-κB [1]; 24 h) [nM] | IC50 (NF-κB [2]; 24 h) [nM] | other results
CC(O)(c1cn2c(-c3cccc(N[C@H]4CNC[C@@H]4F)n3)cnc2cn1)C(F)(F)F (single isomer, unassigned) [Compound 77] |  |  |  | IC50 (MOLM14 D835Y cells; 48 hours): 106 nM
CC(O)(c1cn2c(-c3cccc(N[C@H]4CNC[C@@H]4F)n3)cnc2cn1)C(F)(F)F (single isomer, unassigned) [Compound 78] |  |  |  | IC50 (MOLM14 D835Y cells; 48 hours): 47 nM
CC(O)(c1cn2c(-c3cccc(N[C@H]4CNCC[C@@H]4F)n3)cnc2cn1)C(F)(F)F (single isomer, unassigned) [Compound 82] |  |  |  | IC50 (NF-κB [1]; 24 hours): 12 nM; IC50 (NF-κB [2]; 24 hours): 30 nM; IC50 (MOLM14 D835Y cells; 48 hours): 34 nM
CC1(c2cn3c(-c4cccc(N[C@H]5CNC[C@@H]5F)n4)cnc3cn2)CC1 [Compound 1, N-((3S,4S)-4-fluoropyrrolidin-3-yl)-6-(6-(1-methylcyclopropyl)imidazo[1,2-a]pyrazin-3-yl)pyridin-2-amine] | 18 | 6 | 9 | 
CC1(c2cn3c(-c4cccc(N[C@H]5CNCC56CC6)n4)cnc3cn2)CC1 [Compound 5, (R)-N-(6-(6-(1-methylcyclopropyl)imidazo[1,2-a]pyrazin-3-yl)pyridin-2-yl)-5-azaspiro[2.4]heptan-7-amine] | 2 |  |  | 
FC(F)c1cn2c(-c3cccc(N[C@H]4CNC[C@@H]4F)n3)cnc2cn1 [Compound 16, 6-(6-(difluoromethyl)imidazo[1,2-a]pyrazin-3-yl)-N-((3S,4S)-4-fluoropyrrolidin-3-yl)pyridin-2-amine] | 21 | 11 | 5 | 
CC(C)(O)c1cn2c(-c3nc(N[C@H]4CNC[C@@H]4F)c(F)cc3F)cnc2cn1 [Compound 33, 2-(3-(3,5-difluoro-6-(((3S,4S)-4-fluoropyrrolidin-3-yl)amino)pyridin-2-yl)imidazo[1,2-a]pyrazin-6-yl)propan-2-ol] | 168 |  |  | 
CC(C)(O)c1cn2c(-c3nc(N[C@@H]4CCCNC4)c(F)cc3F)cnc2cn1 [Compound 34, (R)-2-(3-(3,5-difluoro-6-(piperidin-3-ylamino)pyridin-2-yl)imidazo[1,2-a]pyrazin-6-yl)propan-2-ol] | 106 |  |  | 
CC(C)(O)c1cn2c(-c3nc(N[C@H]4CNCC[C@@H]4F)c(F)cc3F)cnc2cn1 [Compound 35, 2-(3-(3,5-difluoro-6-(((3S,4S)-4-fluoropiperidin-3-yl)amino)pyridin-2-yl)imidazo[1,2-a]pyrazin-6-yl)propan-2-ol] | 94 | 23 | 88 | 
F[C@H]1CNC[C@@H]1Nc1cccc(-c2cnc3cnc(C4CC4)cn23)n1 [Compound 50, 6-(6-cyclopropylimidazo[1,2-a]pyrazin-3-yl)-N-((3S,4S)-4-fluoropyrrolidin-3-yl)pyridin-2-amine] | 24 | 9 | 11 | 
Cn1cc(-c2cn3c(-c4cccc(N[C@H]5CNC[C@@H]5F)n4)cnc3cn2)cn1 [Compound 52, N-((3S,4S)-4-fluoropyrrolidin-3-yl)-6-(6-(1-methyl-1H-pyrazol-4-yl)imidazo[1,2-a]pyrazin-3-yl)pyridin-2-amine] | 11 |  |  | 
O=S1(=O)CCCN1c1cn2c(-c3cccc(N[C@H]4CNCC[C@@H]4F)n3)cnc2cn1 [Compound 97, 2-(3-(6-(((3S,4S)-4-fluoropiperidin-3-yl)amino)pyridin-2-yl)imidazo[1,2-a]pyrazin-6-yl)isothiazolidine 1,1-dioxide] | 5 |  |  | IC50 (NF-κB [1]; 24 hours): 83 nM; IC50 (NF-κB [2]; 24 hours): 164 nM
O=C1CCCN1c1cn2c(-c3nc(N[C@H]4CNCC[C@@H]4F)c(F)cc3F)cnc2cn1 [Compound 107, 1-[3-[3,5-difluoro-6-[[(3S,4S)-4-fluoro-3-piperidyl]amino]-2-pyridyl]imidazo[1,2-a]pyrazin-6-yl]pyrrolidin-2-one] | 21 |  |  | IC50 (NF-κB [1]; 24 hours): 37 nM; IC50 (NF-κB [2]; 24 hours): 357 nM
O=C1CCCN1c1cn2c(-c3nc(N[C@@H]4CCCNC4)c(F)cc3F)cnc2cn1 [Compound 108, (R)-1-(3-(3,5-difluoro-6-(piperidin-3-ylamino)pyridin-2-yl)imidazo[1,2-a]pyrazin-6-yl)pyrrolidin-2-one] | 26 |  |  | 
O=C1NCCN1c1cn2c(-c3cccc(N[C@H]4CNCC[C@@H]4F)n3)cnc2cn1 [Compound 118, 1-(3-(6-(((3S,4S)-4-fluoropiperidin-3-yl)amino)pyridin-2-yl)imidazo[1,2-a]pyrazin-6-yl)imidazolidin-2-one] | 9 | 101 | 406 | 
O=C1CCCN1c1cn2c(-c3cccc(N[C@H]4CNCC[C@@H]4F)n3)cnc2cn1 [Compound 119, 1-(3-(6-(((3S,4S)-4-fluoropiperidin-3-yl)amino)pyridin-2-yl)imidazo[1,2-a]pyrazin-6-yl)pyrrolidin-2-one] | 19 |  |  | IC50 (NF-κB [1]; 24 hours): 56 nM; IC50 (NF-κB [2]; 24 hours): 1290 nM
O=C1CCCN1c1cn2c(-c3cccc(N[C@H]4CNC[C@@H]4F)n3)cnc2cn1 [Compound 121, 1-(3-(6-(((3S,4S)-4-fluoropyrrolidin-3-yl)amino)pyridin-2-yl)imidazo[1,2-a]pyrazin-6-yl)pyrrolidin-2-one] | 23 | 54 | 76 | 
CC(C)(C)c1cn2c(-c3nc(N[C@H]4CNC[C@@H]4F)c(F)cc3F)cnc2cn1 [Compound 125] | 163 |  |  | 
CC(C)(C)c1cn2c(-c3nc(N[C@@H]4CCCNC4)c(F)cc3F)cnc2cn1 [Compound 126, (R)-6-(6-(tert-butyl)imidazo[1,2-a]pyrazin-3-yl)-3,5-difluoro-N-(piperidin-3-yl)pyridin-2-amine] | 21 |  |  | 
CC(C)(C)c1cn2c(-c3nc(N[C@H]4CNCC[C@@H]4F)c(F)cc3F)cnc2cn1 [Compound 127, 6-(6-(tert-butyl)imidazo[1,2-a]pyrazin-3-yl)-3,5-difluoro-N-((3S,4S)-4-fluoropiperidin-3-yl)pyridin-2-amine] | 44 |  |  | 

Now from value to compound, other results behind:

IC50 (MOLM14 D835Y cells; Homo sapiens, MOLM-14, 48 h) [nM] | IC50 (NF-κB [1]; 24 h) [nM] | IC50 (NF-κB [2]; 24 h) [nM] | SMILES | other results
68 |  |  | CC(O)(c1cn2c(-c3cccc(N[C@H]4CNCC[C@@H]4F)n3)cnc2cn1)C(F)(F)F (single isomer, unassigned) [Compound 80] | IC50 (NF-κB [1]; 24 hours): 44 nM; IC50 (NF-κB [2]; 24 hours): 124 nM
30 | 24 | 72 | CC(O)(c1cn2c(-c3cccc(N[C@@H]4CCCNC4)n3)cnc2cn1)C(F)(F)F (single isomer, unassigned) [Compound 81] | 
6 |  |  | CC1(c2cn3c(-c4cccc(N[C@@H]5CCNC5)n4)cnc3cn2)CC1 [Compound 3, (R)-6-(6-(1-methylcyclopropyl)imidazo[1,2-a]pyrazin-3-yl)-N-(pyrrolidin-3-yl)pyridin-2-amine] | 
14 |  |  | FC(F)(F)C1(c2cn3c(-c4cccc(N[C@@H]5CCNC5)n4)cnc3cn2)CC1 [Compound 10, (R)-N-(pyrrolidin-3-yl)-6-(6-(1-(trifluoromethyl)cyclopropyl)imidazo[1,2-a]pyrazin-3-yl)pyridin-2-amine] | 
9 | 12 | 47 | FC(F)c1cn2c(-c3cccc(N[C@H]4CNCC[C@@H]4F)n3)cnc2cn1 [Compound 25, 6-(6-(difluoromethyl)imidazo[1,2-a]pyrazin-3-yl)-N-((3S,4S)-4-fluoropiperidin-3-yl)pyridin-2-amine] | 
75 |  |  | CC(C)(O)c1cn2c(-c3cccc(N[C@@H]4CCCNC4)n3)cnc2cn1 [Compound 30, (R)-2-(3-(6-(piperidin-3-ylamino)pyridin-2-yl)imidazo[1,2-a]pyrazin-6-yl)propan-2-ol] | IC50 (NF-κB [1]; 24 hours): 28 nM; IC50 (NF-κB [2]; 24 hours): 40 nM
63 | 37 | 44 | CC(C)(O)c1cn2c(-c3cccc(N[C@H]4CNCC[C@@H]4F)n3)cnc2cn1 [Compound 31, 2-(3-(6-(((3S,4S)-4-fluoropiperidin-3-yl)amino)pyridin-2-yl)imidazo[1,2-a]pyrazin-6-yl)propan-2-ol] | 
23 |  |  | FC(F)(F)COc1cn2c(-c3cccc(N[C@@H]4CCNC4)n3)cnc2cn1 [Compound 38, (R)-N-(pyrrolidin-3-yl)-6-(6-(2,2,2-trifluoroethoxy)imidazo[1,2-a]pyrazin-3-yl)pyridin-2-amine] | 
8 |  |  | Cn1cc(-c2cn3c(-c4cccc(N[C@@H]5CCCNC5)n4)cnc3cn2)cn1 [Compound 43, (R)-6-(6-(1-methyl-1H-pyrazol-4-yl)imidazo[1,2-a]pyrazin-3-yl)-N-(piperidin-3-yl)pyridin-2-amine] | 
9 | 20 | 57 | F[C@H]1CCNC[C@@H]1Nc1cccc(-c2cnc3cnc(C4CC4)cn23)n1 [Compound 51, 6-(6-cyclopropylimidazo[1,2-a]pyrazin-3-yl)-N-((3S,4S)-4-fluoropiperidin-3-yl)pyridin-2-amine] | 
30 |  |  | FC(F)COc1cn2c(-c3cccc(N[C@H]4CNC[C@@H]4F)n3)cnc2cn1 [Compound 58, 6-(6-(2,2-difluoroethoxy)imidazo[1,2-a]pyrazin-3-yl)-N-((3S,4S)-4-fluoropyrrolidin-3-yl)pyridin-2-amine] | 
26 |  |  | CC(C)(C)c1cn2c(-c3cccc(N[C@H]4CNCC[C@@H]4F)n3)cnc2cn1 [Compound 130, 6-(6-(tert-butyl)imidazo[1,2-a]pyrazin-3-yl)-N-((3S,4S)-4-fluoropiperidin-3-yl)pyridin-2-amine] | 
